For experiment [1], the target named is FLNA pentapeptide of SEQ ID NO: 1 (Bn-VAKGL) (Homo sapiens, UniProt P21333). The experiment in a line: FITC-NLX-based FLNA screening assay (inhibition of FITC-naloxone binding to Bn-VAKGL on streptavidin plates). To be noted: 10 nM FITC-NLX.
In a further experiment the test system is mu opiate receptor (MOR). The experiment is described as follows: MOR agonist activity using [35S]GTPγS binding assay in striatal membranes. It counts as biochemical. To be noted: for % DAMGO (0.1 μM) / % DAMGO (1 μM): relative to DAMGO; for % DAMGO + BFNA: 1 μM compound + β-FNA, relative to DAMGO + BFNA. The procedure, abridged: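 Striatal membranes (200 μg) were preincubated 5 min at 30 °C in HEPES pH 7.5 with 100 mM NaCl, 1 mM MgCl2 and 0.5 nM [35S]GTPγS, then 5 min more with 0.1–10 μM compound. Gαo was immunoprecipitated and bound radioactivity counted by scintillation.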
On the technique in general: GTPγS is a poorly hydrolysed GTP analogue; its binding reports G protein activation.

Setting [2] is: read-out: Percent Binding Inhibition, FLNA-binding compound 0.01 μM.
The mark [3] stands for this setting: read-out: Percent Binding Inhibition, FLNA-binding compound 0.1 μM.
The mark [4] stands for this setting: read-out: Percent Binding Inhibition, FLNA-binding compound 1 μM.
Where [5] appears, read: Series C-1, 0.1 μM compound, [35S]GTPγS binding to Gαo, striatal membranes.
[6] abbreviates: Series C-1, 1 μM compound + 1 μM β-FNA.
[7] abbreviates: Series C-1, 1 μM compound, [35S]GTPγS binding to Gαo, striatal membranes.
[8] abbreviates: FLNA-binding compound 0.1 μM, read-out: Percent Binding Inhibition.
[9] abbreviates: FLNA-binding compound 1 μM, read-out: Percent Binding Inhibition.

Where two headings read alike, the source gives them in different places.

For `CC(=O)c1ccc(S(=O)(=O)N2CCC3(CC2)OCCN3S(=O)(=O)c2ccc(C(C)=O)cc2)cc1` [Compound C0011], in experiment [1] (setting [2]), the inhibition (as a rule, the percentage by which the read-out fell short of the control) at 0.01 µM was found to be 37.6%. Moreover, in experiment [1] (setting [3]), the inhibition at 0.1 µM stood at 41.4%. Further, the inhibition at 1 µM in experiment [1] (setting [4]) was found to be 46%. Further, the “% DAMGO (0.1 μM)” value in the experiment on mu opiate receptor (MOR) (Series C-1, 0.1 μM compound) stood at 126.8%; in the experiment with mu opiate receptor (MOR) (Series C-2, 0.1 μM compound), 126.8%. Besides, the “Concentration of FLNA-Binding Compound as Agonist 0.1 μM” value (shortened to “Concentration … as Agonist 0.1 μM”) with mu opiate receptor (MOR) (setting [5]) stood at 217.0%. Moreover, the “Concentration of FLNA-Binding Compound as Agonist 1 μM + BFNA” value (“Concentration … as Agonist 1 μM + BFNA” for short) in the experiment on mu opiate receptor (MOR) (setting [6]) turned out to be 19.0%. Also, the “% DAMGO + BFNA” value in the experiment on mu opiate receptor (MOR) (Series C-1) and in the experiment on mu opiate receptor (MOR) (Series C-2) was 36.5% each time. The “% DAMGO (1 μM)” value with mu opiate receptor (MOR) (Series C-1, 1 μM compound) was determined as 114.3%; with mu opiate receptor (MOR) (Series C-2, 1 μM compound), 114.3%. Further, in the experiment with mu opiate receptor (MOR) (setting [7]), the “Concentration of FLNA-Binding Compound as Agonist 1 μM” value came out at 305.0%. Besides, the “MOR agonist activity, percent [35S]GTPγS binding at the stated compound concentration” value in the experiment with mu opiate receptor (MOR) (Series C-2, 0.1 μM compound, [35S]GTPγS binding to Gαo, striatal membranes) is 217.0%; in the experiment on mu opiate receptor (MOR) (Series C-2, 1 μM compound + 1 μM β-FNA) it was 19.0%; in the experiment on mu opiate receptor (MOR) (Series C-2, 1 μM compound, [35S]GTPγS binding to Gαo, striatal membranes), 305.0%.

Take `O=S(=O)(c1ccc(C(F)(F)F)cc1)N1CCC2(CC1)OCCN2S(=O)(=O)c1ccc(C(F)(F)F)cc1` [Compound C0012]: the inhibition at 0.01 µM in experiment [1] (setting [2]) is 26.3%. Further, the inhibition at 0.1 µM in experiment [1] (setting [3]) was 39.5%. Further, the inhibition at 1 µM in experiment [1] (setting [4]) was found to be 46.4%. Moreover, the “% DAMGO (0.1 μM)” value in the experiment on mu opiate receptor (MOR) (Series C-1, 0.1 μM compound) was determined as 54.8%. In addition, the “Concentration … as Agonist 0.1 μM” value in the experiment on mu opiate receptor (MOR) (setting [5]) turned out to be 96.8%. In addition, in the experiment on mu opiate receptor (MOR) (setting [6]), the “Concentration … as Agonist 1 μM + BFNA” value was found to be 184.4%. The “% DAMGO + BFNA” value with mu opiate receptor (MOR) (Series C-1) is recorded as 280.7%. In the experiment on mu opiate receptor (MOR) (Series C-1, 1 μM compound), the “% DAMGO (1 μM)” value was 86.7%. For the same compound, the “Concentration of FLNA-Binding Compound as Agonist 1 μM” value with mu opiate receptor (MOR) (setting [7]) was 224.8%.

In the case of `CC(=O)Nc1ccc(S(=O)(=O)N2CCC3(CC2)OCCN3S(=O)(=O)c2ccc(NC(C)=O)cc2)cc1` [Compound C0013], the inhibition at 0.1 µM in experiment [1] (setting [8]) amounted to 42.4%. In addition, in experiment [1] (setting [9]), the inhibition at 1 µM is 49.1%. Moreover, the inhibition at 0.01 µM in experiment [1] (setting [2]) was determined as 39.6%. Besides, the “% DAMGO (0.1 μM)” value with mu opiate receptor (MOR) (Series C-1, 0.1 μM compound) stood at 91.0%. For the same compound, the “Concentration … as Agonist 0.1 μM” value in the experiment with mu opiate receptor (MOR) (setting [5]) worked out at 156.6%. The “Concentration … as Agonist 1 μM + BFNA” value in the experiment with mu opiate receptor (MOR) (setting [6]) was 39.6%. For the same compound, the “% DAMGO + BFNA” value in the experiment with mu opiate receptor (MOR) (Series C-1) is listed as 61.8%. In the experiment with mu opiate receptor (MOR) (Series C-1, 1 μM compound), the “% DAMGO (1 μM)” value amounted to 108.9%. In addition, in the experiment with mu opiate receptor (MOR) (setting [7]), the “Concentration of FLNA-Binding Compound as Agonist 1 μM” value was determined as 301.2%.

Regarding `Cc1cccc(S(=O)(=O)N2CCC3(CC2)OCCN3S(=O)(=O)c2cccc(C)c2)c1` [Compound C0014], the inhibition at 0.01 µM in experiment [1] (setting [2]) amounted to 29.5%. For the same compound, the inhibition at 0.1 µM in experiment [1] (setting [3]) was 38.8%. Besides, the inhibition at 1 µM in experiment [1] (setting [4]) amounted to 40%. Moreover, the “% DAMGO (0.1 μM)” value in the experiment on mu opiate receptor (MOR) (Series C-1, 0.1 μM compound) came to 82.0%. The “Concentration … as Agonist 0.1 μM” value in the experiment on mu opiate receptor (MOR) (setting [5]) is 144.9%. Moreover, in the experiment on mu opiate receptor (MOR) (setting [6]), the “Concentration … as Agonist 1 μM + BFNA” value stood at 76.3%. For the same compound, the “% DAMGO + BFNA” value with mu opiate receptor (MOR) (Series C-1) is on record as 116.1%. Moreover, in the experiment on mu opiate receptor (MOR) (Series C-1, 1 μM compound), the “% DAMGO (1 μM)” value is reported as 59.2%. Moreover, in the experiment with mu opiate receptor (MOR) (setting [7]), the “Concentration of FLNA-Binding Compound as Agonist 1 μM” value came to 153.5%.

As to `Cc1ccccc1S(=O)(=O)N1CCC2(CC1)OCCN2S(=O)(=O)c1ccccc1C` [Compound C0015], the inhibition at 0.01 µM in experiment [1] (setting [2]) turned out to be 31.2%. In addition, the inhibition at 0.1 µM in experiment [1] (setting [3]) came out at 40.6%. The inhibition at 1 µM in experiment [1] (setting [4]) came out at 45.5%. In addition, in the experiment on mu opiate receptor (MOR) (Series C-1, 0.1 μM compound), the “% DAMGO (0.1 μM)” value is given as 78.5%. Also, the “Concentration … as Agonist 0.1 μM” value with mu opiate receptor (MOR) (setting [5]) is 138.7%. Further, in the experiment with mu opiate receptor (MOR) (setting [6]), the “Concentration … as Agonist 1 μM + BFNA” value is on record as 126.8%. For the same compound, the “% DAMGO + BFNA” value in the experiment with mu opiate receptor (MOR) (Series C-1) came to 193.0%. Further, in the experiment on mu opiate receptor (MOR) (Series C-1, 1 μM compound), the “% DAMGO (1 μM)” value is listed as 78.9%. Moreover, the “Concentration of FLNA-Binding Compound as Agonist 1 μM” value in the experiment on mu opiate receptor (MOR) (setting [7]) came to 204.7%.

In the case of `O=S(=O)(c1ccccc1)N1CCC2(CC1)OCCN2S(=O)(=O)c1ccccc1` [Compound C0016], the inhibition at 0.01 µM in experiment [1] (setting [2]) amounted to 38.3%. Moreover, the inhibition at 0.1 µM in experiment [1] (setting [3]) is 43.8%. The inhibition at 1 µM in experiment [1] (setting [4]) came out at 49.1%. The “% DAMGO (0.1 μM)” value in the experiment on mu opiate receptor (MOR) (Series C-1, 0.1 μM compound) turned out to be 100.4%. Besides, the “Concentration … as Agonist 0.1 μM” value in the experiment with mu opiate receptor (MOR) (setting [5]) turned out to be 172.7%. The “Concentration … as Agonist 1 μM + BFNA” value in the experiment with mu opiate receptor (MOR) (setting [6]) was 96.7%. Besides, in the experiment on mu opiate receptor (MOR) (Series C-1), the “% DAMGO + BFNA” value turned out to be 150.9%. For the same compound, in the experiment on mu opiate receptor (MOR) (Series C-1, 1 μM compound), the “% DAMGO (1 μM)” value was 83.3%. Also, the “Concentration of FLNA-Binding Compound as Agonist 1 μM” value in the experiment with mu opiate receptor (MOR) (setting [7]) was 230.5%.

Consider `COc1ccc(C(=O)N2CCC3(CC2)OCCN3C(=O)c2ccc(OC)cc2)cc1` [Compound C0017], for which, in experiment [1] (FLNA-binding compound 0.01 μM, read-out: Percent Binding Inhibition), the inhibition at 0.01 µM came to 28.9%. The inhibition at 0.1 µM in experiment [1] (setting [8]) was found to be 35.4%. In addition, the inhibition at 1 µM in experiment [1] (setting [9]) was found to be 40.7%. For the same compound, the “% DAMGO (0.1 μM)” value in the experiment on mu opiate receptor (MOR) (Series C-1, 0.1 μM compound) is listed as 87.1%. In addition, the “Concentration … as Agonist 0.1 μM” value in the experiment on mu opiate receptor (MOR) (setting [5]) came out at 153.8%. Moreover, in the experiment on mu opiate receptor (MOR) (setting [6]), the “Concentration … as Agonist 1 μM + BFNA” value turned out to be 94.1%. For the same compound, the “% DAMGO + BFNA” value in the experiment with mu opiate receptor (MOR) (Series C-1) is reported as 143.2%. For the same compound, in the experiment with mu opiate receptor (MOR) (Series C-1, 1 μM compound), the “% DAMGO (1 μM)” value came out at 109.7%. Moreover, the “Concentration of FLNA-Binding Compound as Agonist 1 μM” value in the experiment on mu opiate receptor (MOR) (setting [7]) stood at 284.5%.

The values are drawn from patent publication US10363239B2, “Method for inhibiting growth of cancer cells” (Pain Therapeutics, Inc., priority 2013, dated 2019).
